Reference: US20260306460A1, “COMPOSITION FOR REMOVING AND INHIBITING SENESCENT CELLS, AND USES THEREOF” (LIFECEUTIX CO., LTD., priority 2023, published 2026)

Legend:
senescent human cells = test: Viability of doxorubicin-induced senescent human cells (CellTiter-Glo), Example 11; format: cell-based
Experimental: Cells in which senescence was induced by treatment with doxorubicin were treated with the test compound at designated concentrations and measured using the CellTiter-Glo Luminescent Cell Viability Assay (Promega).
After 3 days, cell viability was measured using CellTiter-Glo Luminescent Cell Viability Assay (Promega) or light microscopy.

SAMP8 mice = test: Cognitive impairment in SAMP8 mice (p16 mRNA, Y maze), Example 28, Table 52; format: in vivo, mouse; details: for Spontaneous alternation: Y maze test, 8 minutes, untreated 48.4 (±27.3); for p16 mRNA: hippocampus, daily for 21 days, untreated 100%
Experimental: Twelve-week-old male SAMP8 mice (SLC), a cognitive impairment model, were acclimated to the experimental environment for one week and then randomly assigned to experimental and control groups. […] LX-2101 was mixed with 5% DMSO (Sigma) in PBS and administered intraperitoneally at a concentration of 10 mg/kg daily for 21 days. The control group received only the same volume of solution. After drug administration, the mice were tested in the Y maze test to analyze the degree of cognitive and memory improvement. The Y-maze test is a method to assess short-term memory-type spatial awareness. It is a Y-shaped enclosed maze made of black acrylic to the following specifications (40 cm in length, 8 cm in width, 13 cm in height, with each arm angled 120 degrees). Three arms are designated A, B, and C. A mouse is carefully placed on one arm and allowed to move freely for 8 minutes. The arm into which the mouse enters up to its tail is recorded in order. Each instance of entering each arm sequentially is awarded 1 point (actual alternation). Alternation behavior is defined as entering all arms without overlapping, and spontaneous alternation behavior is calculated using the following formula:
Spontaneous alternation behavior (%)=Actual alternation/Maximum alternation×100 • Maximum alternation: Total number of entries-2
After the behavioral evaluation, the mice were sacrificed, and RNA from the hippocampus region of the brain was extracted using the same method as Example 7-2 of WO2023-085787 A1, and qRT-PCR was performed using the synthesized cDNA.

[1] = test system: doxorubicin-induced aged C57BL6J mice; test: Fatigue, weakness and weight loss in doxorubicin-aged mice, Example 22-7, Table 36; format: in vivo, mouse; details: for Grip Sterenght Test Strength / Open Field Test Time in Center / Wire Hanging Test Time: amount after aging calculated as 100%; for Mean Body Weight: untreated 20.8 (±1.7)
Experimental: Eight-week-old male C57BL6J mice (KRIBB Laboratory Animal Resource Center) were acclimated to the experimental environment for one week. […] The aging-induced mice were randomly assigned to experimental and control groups. […] The control group received only the solution in the same volume. After the end of drug administration, the methods described in each example below were performed.
The amount of each evaluation after aging was calculated as 100% and compared with the amount of each evaluation after test compound treatment.

[2] = test system: bleomycin-induced pulmonary fibrosis C57BL6J mice; test: Bleomycin pulmonary fibrosis in mice (p16, IL6, Col1a1 mRNA, alveoli size), Example 24-1, Table 47; format: in vivo, mouse; details: for Airspace enlargement: average size of alveoli, untreated 39.8 (±0.4); for Col1a1 mRNA / IL6 mRNA / p16 mRNA: lung, daily for 21 days, untreated 100%
Experimental: Eight-week-old male C57BL6J mice (KRIBB Laboratory Animal Resource Center) were acclimated to the experimental environment for one week. They were then administered the anticancer drug bleomyxin via intratracheal inhalation at a concentration of 2.5 mg/kg, inducing aging for more than 10 days. The aging-induced mice were randomly assigned to experimental and control groups. […] LX-3002 was mixed in distilled water with 4% DMSO, 30% PEG300, 5% tween80 and administered orally at a concentration of 10 mg/kg daily for 21 days. LX-5701 was mixed in PBS and administered orally at a concentration of 360 mg/kg daily for 21 days. LX-6807 was mixed in saline and administered intraperitoneally at a concentration of 1 mg/kg daily for 21 days. The control group received only the solution in the same volume. After the end of drug administration, mice were sacrificed in the same manner as in Example 7-2 of WO2023-085787 A1, RNA was extracted from lung tissue, and qRT-PCR (quantitative real-time PCR) was performed and analyzed using the synthesized cDNA. […] The amount of mRNA after aging was calculated as 100%, and the results after treatment with the test compound were compared. Furthermore, paraffin sections were stained with hematoxylin/eosin (H/E), and the size of alveoli was measured under an optical microscope to assess the degree of lung function impairment due to pulmonary fibrosis.

[3] = test system: naturally aged C57BL6J mice; test: Kidney damage markers (urea, creatinine, Agtr1a mRNA) in naturally aged mice, Example 21-9, Table 24; format: in vivo, mouse; details: untreated aged = 100%; for Agtr1a mRNA (%): qRT-PCR; for Creatinine (%) / Urea (%): serum
Experimental: 22-month-old female C57BL6J mice (KRIBB Laboratory Animal Resource Center) were acclimated to the experimental environment for one week, after which the aged mice were randomly assigned to experimental and control groups. Eight-week-old, non-aged mice served as controls. LX-403 was mixed in a 10% ethanol solution of PEG400 and administered orally at a concentration of 25 mg/kg daily for 21 days, or administered to the skin, joints, or eyes at a concentration of 1 μM. LX-1801 was mixed in distilled water with 4% DMSO, 30% PEG300, and 5% Tween80 and administered to the skin, joints, or eyes at a concentration of 0.4 μM daily for 21 days. LX-2001 was mixed in PBS and administered to the skin, joints, or eyes at a concentration of […] daily for 21 days. LX-2002 was mixed in distilled water with 4% DMSO, 30% PEG300, and 5% Tween80 and administered to the skin, joints, or eyes at a concentration of 2 μM daily for 21 days. […] LX-2005 was mixed in distilled water with 4% DMSO, 30% PEG300, and 5% Tween80 and administered to the skin, joints, or eyes at a concentration of 90 μM daily for 21 days. LX-2007 was mixed in distilled water with 4% DMSO, 30% PEG300, and 5% Tween80 and administered to the skin, joints, or eyes at a concentration of 90 μM daily for 21 days. […] LX-3002 was mixed in distilled water with 4% DMSO, 30% PEG300, and 5% Tween80 and administered orally at a concentration of 10 mg/kg daily for 21 days. […] LX-5411 was mixed in 5% PBS and administered orally at a concentration of 10 mg/kg daily for 21 days or administered to the skin, joints, or eyes at a concentration of 3 μM. LX-5701 was mixed in PBS and administered orally at a concentration of 360 mg/kg daily for 21 days. LX-6807 was mixed in saline and administered intraperitoneally at a concentration of 1 mg/kg daily for 21 days. LX-2101 or LX-2102 was mixed in PBS solution with 5% DMSO and administered intraperitoneally at a concentration of 20 mg/kg or 10 mg/kg, respectively, daily for 21 days. The control group received only the solution in the same volume. After the end of drug administration, the methods described in each example below were performed.
The levels of urea and creatinine, markers of kidney damage, in serum collected from mice were measured spectrophotometrically using kits (BioAssay Systems and Sigma). Additionally, the amount of Agtr1a mRNA, a marker of kidney damage, was measured using qRT-PCR as described in Example 7-2 of WO2023-085787 A1. […] The amount of each factor after aging was calculated as 100% and compared with the amount of each factor after test compound treatment.

Compound	induced death of cells (senescent human cells; senescent foreskin cells, 30 μM, 3 days)	Survival (senescent human cells; 1.1 μM, 0 μM = 100)	Survival (senescent human cells; 10 μM, 0 μM = 100)	Survival (senescent human cells; […], 0 μM = 100)	viability at […] (senescent human cells; Homo sapiens, 3.3 μM, 0 μM = 100, read-out: Survival)	Spontaneous alternation (SAMP8 mice)	p16 mRNA (SAMP8 mice)	Grip Sterenght Test Strength [1]	Open Field Test Time in Center [1]	Wire Hanging Test Time [1]	Mean Body Weight [1]	Airspace enlargement [2]	Col1a1 mRNA [2]	IL6 mRNA [2]	p16 mRNA [2]	Agtr1a mRNA (%) [3]	Creatinine (%) [3]	Urea (%) [3]
COC(=O)c1ccc([C@H]2c3[nH]c4ccccc4c3C[C@H](C(=O)OC)N2C(=O)CCl)cc1 [LX-405]	induced the death of most cells																	
S=C(N/N=C1\CCCc2cccnc21)N1CCN(c2ccccn2)CC1 [LX-801]		50.5%	28.2%	48.9%														
C[C@H]1[C@H](C)CC[C@]2(C(=O)O)CC[C@]3(C)C(=CC[C@@H]4[C@@]5(C)CC[C@H](O)C(C)(C)[C@@H]5CC[C@]43C)[C@H]12 [LX-2001, Ursolic acid]					0.8%													
CC1(C)CC[C@]2(NC(=O)C(C)(F)F)CC[C@]3(C)[C@H](C(=O)C=C4[C@@]5(C)C=C(C#N)C(=O)C(C)(C)[C@@H]5CC[C@]43C)[C@@H]2C1 [LX-2101, Omaveloxolone]						51.1 (±16.8) %	82 (±7.1) %											
CCCC\C=C/C=C/C=C\CCCCCCCC(=O)O [LX-2707, Punicic acid]						54.5 (±2.0) %	75 (±3.3) %	128 (±5.7) %	232 (±33.6) %	192 (±12.7) %	22.4 (±2.1) g	35.4 (±1.8) μm	70 (±6.5) %	38 (±4.1) %	43 (±4.2) %	68 (±3.3) %	73 (±4.3) %	78 (±3.1) %
O=C1C2CCN(CC2)C1CNC(=O)C(F)(F)F (stereo not drawn) [LX-5701]						62.7 (±11.9) %	70 (±9.6) %	117 (±6.9) %	192 (±24.3) %	139 (±8.2) %	23.0 (±2.8) g	30.1 (±2.7) μm	52 (±13.9) %	59 (±13.2) %	65 (±7.1) %	44 (±2.3) %	68 (±6.3) %	71 (±4.0) %
Cc1cccc([C@H](C)c2cnc[nH]2)c1C [LX-6807, Dexmedetomidine]						60.7 (±4.3) %	39 (±6.2) %	137 (±6.3) %	249 (±34.1) %	209 (±14.5) %	23.2 (±2.7) g	33.8 (±3.6) μm	56 (±3.6) %	48 (±2.4) %	54 (±1.9) %	37 (±4.0) %	57 (±2.0) %	68 (±2.7) %
Tocofersolan [LX-3001]		74.8%		1.1%		50.6 (±3.6) %	64 (±2.8) %	120 (±9.3) %		127 (±13.3) %	21.2 (±1.3) g	36.2 (±2.2) μm	64 (±3.9) %	51 (±3.6) %	65 (±3.8) %	61 (±2.0) %	75 (±3.2) %	81 (±5.4) %
